Measurements from patent US20060069132A1, “Azolecarboxamide herbicides” (priority 2004, published 2006).

What was measured:
[1] = system: barnyardgrass; test: Test B pre-/postemergence herbicide test; assay type: in vivo, Echinochloa crus-galli; settings: for Barnyardgrass plant response rating: postemergence
Summary of the method: (§1)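 Species tested were Echinochloa crus-galli, Ipomoea coccinea, Xanthium strumarium and Oryza sativa, treated both before emergence and at the 1- to 4-leaf stage; rice and barnyardgrass were also tested under flooding at 2 leaves. Greenhouse incubation lasted 13–15 days before visual 0–100 scoring.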

[2] = system: velvetleaf; test: Test B pre-/postemergence herbicide test; assay type: in vivo, Abutilon theophrasti; settings: for Velvetleaf plant response rating: postemergence
Summary of the method: (§2)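 Response was scored visually 13 to 15 days after treatment against untreated greenhouse controls, 0 meaning no effect and 100 complete control. Formulations (solvent mixture plus surfactant) went onto soil after planting, onto foliage of 1- to 4-leaf plants, and onto 2-leaf plants in a flooded paddy set including rice and barnyardgrass.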

[3] = system: large crabgrass; test: Test B pre-/postemergence herbicide test; assay type: in vivo, Digitaria sanguinalis; settings: for Crabgrass, Large plant response rating: postemergence
Summary of the method: as §2

[4] = system: lambsquarters; test: Test B pre-/postemergence herbicide test; assay type: in vivo, Chenopodium album; settings: postemergence
Summary of the method: as §2

[5] = system: giant foxtail; test: Test A pre-/postemergence herbicide test; assay type: in vivo, Setaria faberi
Summary of the method: (§3)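 Plants are held in greenhouse about ten days after treatment, then compared with untreated controls and scored 0 (no effect) to 100 (complete control). Preemergence dosing is a directed soil spray on sown sandy loam; postemergence dosing is spray to runoff at 2–10 cm height.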

[6] = system: redroot pigweed; test: Test A pre-/postemergence herbicide test; assay type: in vivo, Amaranthus retroflexus
Summary of the method: as §3

[7] = system: ducksalad; test: Test B flooded paddy test; assay type: in vivo, Heteranthera limosa; settings: 1000 g ai/ha, scale 0 to 100 (0 no effect, 100 complete control)
Summary of the method: (§4)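 Plants grow to 1- to 4-leaf stage (2–18 cm) for postemergence spraying, or to 2-leaf stage for the paddy test. Formulated compound is applied. Greenhouse holding lasts 13–15 days. Response is scored visually relative to controls, 0 no effect to 100 complete control; a dash means no result.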

[8] = system: rice; test: Test B flooded paddy test; assay type: in vivo, Oryza sativa; settings: 1000 g ai/ha, scale 0 to 100 (0 no effect, 100 complete control)
Summary of the method: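 Postemergence plants were sprayed with formulated test chemicals at 2 to 18 cm height (1- to 4-leaf stage); paddy species were grown to the 2-leaf stage. After 13 to 15 days in a greenhouse, injury was rated visually against untreated controls on a 0–100 scale (0 = no effect, 100 = complete control).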

[9] = system: giant foxtail; test: Test B pre-/postemergence herbicide test; assay type: in vivo, Setaria faberi; settings: for Foxtail, Giant plant response rating: postemergence
Summary of the method: as §2

[10] = system: cocklebur; test: Test B pre-/postemergence herbicide test; assay type: in vivo, Xanthium strumarium; settings: for Cocklebur plant response rating: postemergence
Summary of the method: as §1

[11] = system: blackgrass; test: Test B postemergence herbicide test; assay type: in vivo, Alopecurus myosuroides; settings: postemergence
Summary of the method: as §4

[12] = system: wheat; test: Test B postemergence herbicide test; assay type: in vivo, Triticum aestivum; design: key to Wheat plant response rating: 0 = no effect, 100 = complete control; settings: postemergence
Summary of the method: (§5)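 Treated at 2-leaf (paddy) or 1–4-leaf, 2–18 cm (postemergence); greenhouse 13–15 d; visual score vs control, 0 none to 100 complete control; dash = not tested.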

[13] = system: rice; test: Test B pre-/postemergence herbicide test; assay type: in vivo, Oryza sativa; settings: 0 = no effect, 100 = complete control, preemergence
Summary of the method: as §2

[14] = system: velvetleaf; test: Test A pre-/postemergence herbicide test; assay type: in vivo, Abutilon theophrasti
Summary of the method: as §3

[15] = system: barnyardgrass; test: Test B flooded paddy test; assay type: in vivo, Echinochloa crus-galli; settings: 1000 g ai/ha, scale 0 to 100 (0 no effect, 100 complete control)
Summary of the method: as §4

[16] = system: morningglory; test: Test B pre-/postemergence herbicide test; assay type: in vivo, Ipomoea coccinea; settings: for Morningglory plant response rating: postemergence
Summary of the method: as §1

[17] = system: barnyardgrass; test: Test A pre-/postemergence herbicide test; assay type: in vivo, Echinochloa crus-galli
Summary of the method: as §3

[18] = system: large crabgrass; test: Test A pre-/postemergence herbicide test; assay type: in vivo, Digitaria sanguinalis
Summary of the method: as §3

[19] = system: corn; test: Test B pre-/postemergence herbicide test; assay type: in vivo, Zea mays; settings: for Corn plant response rating: postemergence
Summary of the method: as §2

[20] = system: wild oat; test: Test B postemergence herbicide test; assay type: in vivo, Avena fatua; settings: postemergence
Summary of the method: as §5

[21] = system: small flower umbrella sedge; test: Test B flooded paddy test; assay type: in vivo, Cyperus difformis; settings: 1000 g ai/ha, scale 0 to 100 (0 no effect, 100 complete control)
Summary of the method: as §4

[22] = system: Surinam grass; test: Test B pre-/postemergence herbicide test; assay type: in vivo, Urochloa decumbens; settings: for Surinam Grass plant response rating: postemergence
Summary of the method: as §2

[23] = system: morningglory; test: Test A pre-/postemergence herbicide test; assay type: in vivo, Ipomoea spp.
Summary of the method: as §3

[24] = system: pigweed; test: Test B pre-/postemergence herbicide test; assay type: in vivo, Amaranthus retroflexus; settings: for Pigweed plant response rating: postemergence
Summary of the method: as §2

[25] = 125 g ai/ha, 0 = no effect, 100 = complete control, preemergence
[26] = 500 g ai/ha, visual rating, 0 = no effect, 100 = complete control, preemergence
[27] = 125 g ai/ha, visual rating, scale 0 (no effect) to 100 (complete control)
[28] = 500 g ai/ha, scale 0 to 100, 0 is no effect, 100 is complete control
[29] = Postemergence, 500 g ai/ha, 0 to 100 scale, 0 no effect, 100 complete control
[30] = Postemergence, 2000 g ai/ha, 0 to 100 scale, 0 no effect, 100 complete control
[31] = Preemergence, 2000 g ai/ha, visual rating, 0 to 100 scale (0 no effect, 100 complete control)
[32] = preemergence, 500 g ai/ha, visual injury, 0 to 100 scale (0 no effect, 100 complete control)

CCn1nc(C(C)(C)C)cc1C(=O)Nc1cc(C(=O)N(C)C)c(F)cc1F [Compound 270]
Barnyardgrass plant response rating (0 to 100 scale) [1, 25]: 0
Plant response rating, Barnyardgrass [1, 26]: 50
Barnyardgrass plant response rating [1, 27]: 0
Barnyardgrass plant response rating [1, 28]: 0
Velvetleaf plant response rating (0 to 100 scale) [2, 25]: 50
Plant response rating, Velvetleaf [2, 26]: 70
Velvetleaf plant response rating [2, 27]: 0
Velvetleaf plant response rating [2, 28]: 0
Crabgrass, Large plant response rating (0 to 100 scale) [3, 25]: 0
Plant response rating, Crabgrass, Large [3, 26]: 20
Crabgrass, Large plant response rating [3, 27]: 0
Crabgrass, Large plant response rating [3, 28]: 0
Lambsquarters plant response rating [4, 27]: 0
Lambsquarters plant response rating [4, 28]: 10
Foxtail, Giant plant response rating [5, 29]: 0
Plant response rating, Foxtail, Giant [5, 30]: 0
Foxtail, Giant plant response rating [5, 31]: 70
Foxtail, Giant plant response rating [5, 32]: 20
Pigweed plant response rating [6, 29]: 20
Plant response rating, Pigweed [6, 30]: 0
Pigweed plant response rating [6, 31]: 85
Pigweed plant response rating [6, 32]: 15
Ducksalad plant response rating [7]: 70
Rice plant response rating [8]: 70
Foxtail, Giant plant response rating (0 to 100 scale) [9, 25]: 0
Plant response rating, Foxtail, Giant [9, 26]: 50
Foxtail, Giant plant response rating [9, 27]: 0
Foxtail, Giant plant response rating [9, 28]: 0
Cocklebur plant response rating (0 to 100 scale) [10, 25]: 0
Plant response rating, Cocklebur [10, 26]: 0
Cocklebur plant response rating [10, 27]: 0
Cocklebur plant response rating [10, 28]: 0
Blackgrass plant response rating [11, 27]: 0
Blackgrass plant response rating [11, 28]: 20
Wheat plant response rating [12, 27]: 0
Wheat plant response rating [12, 28]: 0
Rice plant response rating (0 to 100 scale) ([13]; 125 g ai/ha): 0
Plant response rating, Rice ([13]; 500 g ai/ha, visual rating): 60
Velvetleaf plant response rating [14, 29]: 15
Plant response rating, Velvetleaf [14, 30]: 25
Velvetleaf plant response rating [14, 31]: 55
Velvetleaf plant response rating [14, 32]: 30
Barnyardgrass plant response rating [15]: 50
Morningglory plant response rating (0 to 100 scale) [16, 25]: 0
Plant response rating, Morningglory [16, 26]: 0
Morningglory plant response rating [16, 27]: 0
Morningglory plant response rating [16, 28]: 10
Barnyardgrass plant response rating [17, 29]: 0
Plant response rating, Barnyardgrass [17, 30]: 30
Barnyardgrass plant response rating [17, 31]: 90
Barnyardgrass plant response rating [17, 32]: 60
Crabgrass, Large plant response rating [18, 29]: 0
Plant response rating, Crabgrass, Large [18, 30]: 10
Crabgrass, Large plant response rating [18, 31]: 35
Crabgrass, Large plant response rating [18, 32]: 5
Corn plant response rating (0 to 100 scale) [19, 25]: 0
Plant response rating, Corn [19, 26]: 50
Corn plant response rating [19, 27]: 0
Corn plant response rating [19, 28]: 10
Oat, Wild plant response rating [20, 27]: 0
Oat, Wild plant response rating [20, 28]: 0
Sedge, Umbrella plant response rating [21]: 60
Surinam Grass plant response rating (0 to 100 scale) [22, 25]: 0
Plant response rating, Surinam Grass [22, 26]: 20
Surinam Grass plant response rating [22, 27]: 0
Surinam Grass plant response rating [22, 28]: 10
Morningglory plant response rating [23, 29]: 20
Plant response rating, Morningglory [23, 30]: 20
Morningglory plant response rating [23, 31]: 30
Morningglory plant response rating [23, 32]: 0
Pigweed plant response rating (0 to 100 scale) [24, 25]: 0
Pigweed plant response rating [24, 27]: 0
Pigweed plant response rating [24, 28]: 0
